According to US10562898B2, “Substituted benzenesulfonamides as inhibitors of alpha-4 beta-7 integrin activity” (EA PHARMA CO., LTD., priority 2016, dated 2020):

target: T1, α4β7 integrin (Homo sapiens, UniProt P13612+P26010); experiment: MAdCAM-1/α4β7 integrin binding inhibitory activity evaluation test in presence of serum; type: cell-based; details: RPMI-8866 cells, recombinant mouse MAdCAM-1/Fc, 50% human serum; read-out: α4β7 Serum Added IC50
T1 construct: a cell line RPMI-8866, which is known to express α4β7 integrin; endogenous in cells; host or cells: RPMI-8866 (human B cell line)
T1 sequence (P13612 34-1032): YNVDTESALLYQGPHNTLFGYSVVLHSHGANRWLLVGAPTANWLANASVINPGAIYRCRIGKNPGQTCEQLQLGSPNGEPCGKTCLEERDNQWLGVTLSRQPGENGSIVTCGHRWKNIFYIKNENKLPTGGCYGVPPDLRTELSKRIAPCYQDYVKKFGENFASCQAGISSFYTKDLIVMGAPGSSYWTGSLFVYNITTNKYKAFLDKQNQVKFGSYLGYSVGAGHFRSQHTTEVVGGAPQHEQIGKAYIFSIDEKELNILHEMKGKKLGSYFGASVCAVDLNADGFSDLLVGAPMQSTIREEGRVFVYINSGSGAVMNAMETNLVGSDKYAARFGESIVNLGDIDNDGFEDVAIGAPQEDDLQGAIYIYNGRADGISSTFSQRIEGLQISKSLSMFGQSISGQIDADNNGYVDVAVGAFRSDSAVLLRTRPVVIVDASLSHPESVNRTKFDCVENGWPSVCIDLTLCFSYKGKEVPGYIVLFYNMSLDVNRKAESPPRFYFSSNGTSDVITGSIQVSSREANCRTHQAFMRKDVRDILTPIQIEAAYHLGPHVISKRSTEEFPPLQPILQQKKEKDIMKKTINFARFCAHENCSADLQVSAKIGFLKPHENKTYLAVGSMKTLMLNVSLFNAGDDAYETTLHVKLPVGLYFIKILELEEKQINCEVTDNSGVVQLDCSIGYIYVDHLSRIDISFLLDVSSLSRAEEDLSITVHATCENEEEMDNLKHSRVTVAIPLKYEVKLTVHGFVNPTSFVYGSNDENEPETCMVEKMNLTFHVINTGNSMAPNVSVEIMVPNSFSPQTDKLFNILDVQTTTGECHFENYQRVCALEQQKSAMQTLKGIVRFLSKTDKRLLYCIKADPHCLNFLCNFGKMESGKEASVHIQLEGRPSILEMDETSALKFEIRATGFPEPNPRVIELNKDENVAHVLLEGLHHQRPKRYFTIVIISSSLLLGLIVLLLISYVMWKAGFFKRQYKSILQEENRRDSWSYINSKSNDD
T1 sequence (P26010 20-798): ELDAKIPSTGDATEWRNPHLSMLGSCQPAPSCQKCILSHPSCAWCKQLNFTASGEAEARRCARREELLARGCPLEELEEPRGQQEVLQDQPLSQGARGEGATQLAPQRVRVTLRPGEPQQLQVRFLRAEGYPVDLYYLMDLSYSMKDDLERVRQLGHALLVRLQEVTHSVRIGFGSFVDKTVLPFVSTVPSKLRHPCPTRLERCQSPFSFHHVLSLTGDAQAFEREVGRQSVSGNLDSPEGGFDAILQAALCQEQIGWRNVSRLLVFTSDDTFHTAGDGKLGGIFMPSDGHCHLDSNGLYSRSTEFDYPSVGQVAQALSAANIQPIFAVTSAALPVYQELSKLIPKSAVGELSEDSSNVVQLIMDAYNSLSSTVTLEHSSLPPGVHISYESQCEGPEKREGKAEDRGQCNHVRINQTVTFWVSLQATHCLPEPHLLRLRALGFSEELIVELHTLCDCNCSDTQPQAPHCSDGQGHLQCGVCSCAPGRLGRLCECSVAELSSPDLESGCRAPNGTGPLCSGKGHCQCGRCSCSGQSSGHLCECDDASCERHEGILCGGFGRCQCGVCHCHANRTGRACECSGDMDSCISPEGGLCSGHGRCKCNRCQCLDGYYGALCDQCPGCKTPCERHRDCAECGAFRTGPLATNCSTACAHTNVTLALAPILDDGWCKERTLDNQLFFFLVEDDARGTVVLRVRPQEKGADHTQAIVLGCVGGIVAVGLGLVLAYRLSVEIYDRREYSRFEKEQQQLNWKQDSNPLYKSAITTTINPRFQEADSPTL
Description: (3) MAdCAM-1/α4β7 Integrin Binding Inhibitory Activity Evaluation Test in Presence of Serum (1)
Each test substance was measured in terms of an ability to inhibit the MAdCAM-1 binding of a human B cell line, namely, a cell line RPMI-8866, which is known to express α4β7 integrin.
A solution of recombinant mouse MAdCAM-1/Fc (R&D Systems, Inc.) (1 μg/mL) diluted with a buffer A (carbonate buffer, pH 9.6) was added in an amount of 50 μL/well to a 96-well microtiter plate, followed by incubation at 4° C. overnight. After the plate was washed with PBS once, 150 μL/well of Block Ace (Snow Brand Milk Products Co., Ltd.) was added, followed by incubation at room temperature for 2 hours. After removal, the plate was washed with PBS once.
Then, 100 μL of the RPMI-8866 cells (2×10^6 cells/mL) and 100 of the test substance at each of various concentrations diluted with a binding buffer (DMEM containing 40 mM HEPES, 0.2% BSA, and 4 mM MnCl2) were added to the plate coated with the MAdCAM-1/Fc (5×10^5 cells/well) such that 50% human serum was contained at the final concentration. Then, incubation was allowed to proceed at 30° C. for 15 to 60 minutes. After the cells were bound to the wells, the plate was washed with PBS to remove unbound cells. A buffer C (PBS containing 1.5% Triton X-100) was added in an amount 50 μL/well to the plate to lyse the bound RPMI-8866 cells. After 30 μL of a substrate buffer (Promega, CytoTox 96 Non-Radioactive Cytotoxicity Assay) was added to 30 μL of the cell lysate, a reaction was allowed to proceed at room temperature in the dark for 30 minutes. After 30 μL of a stop solution (Promega, CytoTox 96 Non-Radioactive Cytotoxicity Assay) was added to each, and then an absorbance at 490 nm was measured using a plate reader. The absorbance obtained here represents a detection result of an activity of lactate dehydrogenase (LDH) eluted in the supernatant of each well, that is, the absorbance is proportional to the number of RPMI-8866 cells bound to the MAdCAM-1 and thus remaining on the plate. The test was performed in duplicate. Provided that the absorbance of the well containing no test substance was 100%, a cell binding rate with the test substance at each of the various concentrations was figured out, and a concentration IC50 which brought about 50% binding inhibition was calculated.

| SMILES | IC50 [nM] |
| --- | --- |
| Cn1c(=O)n(-c2ccc(C[C@H](NC(=O)c3cc(F)c(NS(=O)(=O)c4ccc(NC(=O)C(C)(C)C)cc4)cc3F)C(=O)O)cc2)c(=O)c2ccncc21 [Compound A1, (2S)-2-[[4-[[4-(2,2-dimethylpropanoylamino)phenyl]sulfonylamino]-2,5-difluoro-benzoyl]amino]-3-[4-(1-methyl-2,4-dioxo-pyrido[3,4-d]pyrimidin-3-yl)phenyl]propanoic acid] | 10 |
| CC(=O)Nc1ccc(S(=O)(=O)Nc2cc(F)c(C(=O)N[C@@H](Cc3ccc(-n4c(=O)c5ccncc5n(C)c4=O)cc3)C(=O)O)cc2F)cc1 [Compound A2] | 36 |
| CCC(CC)C(=O)Nc1ccc(S(=O)(=O)Nc2cc(F)c(C(=O)N[C@@H](Cc3ccc(-n4c(=O)c5ccncc5n(C)c4=O)cc3)C(=O)O)cc2F)cc1 [Compound A3] | 10 |
| CCC(CC)C(=O)Nc1ccc(S(=O)(=O)Nc2cc(F)c(C(=O)N[C@@H](Cc3ccc(-n4c(=O)c(C)c(C)n(C)c4=O)cc3)C(=O)O)cc2F)cc1 [Compound A4] | 16 |
| Cn1c(=O)n(-c2ccc(C[C@H](NC(=O)c3cc(F)c(NS(=O)(=O)c4ccc(NC(=O)NC(C)(C)C)cc4)cc3F)C(=O)O)cc2)c(=O)c2ccncc21 [Compound A5] | 70 |
| Cn1c(=O)n(-c2ccc(C[C@H](NC(=O)c3cc(F)c(NS(=O)(=O)c4ccc(NC(=O)C5CCNCC5)cc4)cc3F)C(=O)O)cc2)c(=O)c2ccncc21 [Compound A6, (2S)-2-[[2,5-difluoro-4-[[4-(piperidine-4-carbonylamino)phenyl]sulfonylamino]benzoyl]amino]-3-[4-(1-methyl-2,4-dioxo-pyrido[3,4-d]pyrimidin-3-yl)phenyl]propanoic acid] | 14 |
| Cn1c(=O)n(-c2ccc(C[C@H](NC(=O)c3cc(F)c(NS(=O)(=O)c4ccc(NC(=O)c5ccncc5)cc4)cc3F)C(=O)O)cc2)c(=O)c2ccncc21 [Compound A7] | 28 |
| Cc1c(C)n(C)c(=O)n(-c2ccc(C[C@H](NC(=O)c3cc(F)c(NS(=O)(=O)c4ccc(NC(=O)C(C)(C)C)cc4)cc3F)C(=O)O)cc2)c1=O [Compound A8] | 3.7 |
| Cn1c(=O)n(-c2ccc(C[C@H](NC(=O)c3cc(F)c(NS(=O)(=O)c4ccc(NC(=O)C(C)(C)C)s4)cc3F)C(=O)O)cc2)c(=O)c2ccncc21 [Compound A9] | 4.5 |
| Cc1c(C)n(C)c(=O)n(-c2ccc(C[C@H](NC(=O)c3cc(F)c(NS(=O)(=O)c4ccc(NC(=O)C(C)(C)C)s4)cc3F)C(=O)O)cc2)c1=O [Compound A10] | 10 |
| Cc1c(C)n(C)c(=O)n(-c2ccc(C[C@H](NC(=O)c3cc(F)c(NS(=O)(=O)c4cc(NC(=O)C(C)(C)C)cs4)cc3F)C(=O)O)cc2)c1=O [Compound A11] | 38 |
| Cn1c(=O)n(-c2ccc(C[C@H](NC(=O)c3cc(F)c(NS(=O)(=O)c4ccc(NC(=O)C(C)(C)C)c(F)c4)cc3F)C(=O)O)cc2)c(=O)c2ccncc21 [Compound A12] | 61 |
| Cn1c(=O)n(-c2ccc(C[C@H](NC(=O)c3cc(F)c(NS(=O)(=O)c4ccc(NC(=O)C5CCOCC5)cc4)cc3F)C(=O)O)cc2)c(=O)c2ccncc21 [Compound A14] | 12 |
| Cc1c(C)n(C)c(=O)n(-c2ccc(C[C@H](NC(=O)c3cc(F)c(NS(=O)(=O)c4ccc(NC(=O)C5CCOCC5)cc4)cc3F)C(=O)O)cc2)c1=O [Compound A15] | 14 |
| COC1(C(=O)Nc2ccc(S(=O)(=O)Nc3cc(F)c(C(=O)N[C@@H](Cc4ccc(-n5c(=O)c6ccncc6n(C)c5=O)cc4)C(=O)O)cc3F)cc2)CC1 [Compound A16] | 44 |
| COC1(C(=O)Nc2ccc(S(=O)(=O)Nc3cc(F)c(C(=O)N[C@@H](Cc4ccc(-n5c(=O)c(C)c(C)n(C)c5=O)cc4)C(=O)O)cc3F)cc2)CC1 [Compound A17] | 67 |
| Cn1c(=O)n(-c2ccc(C[C@H](NC(=O)c3cc(F)c(NS(=O)(=O)c4ccc(NC(=O)C(C)(C)CO)cc4)cc3F)C(=O)O)cc2)c(=O)c2ccncc21 [Compound A18] | 9 |
| Cc1c(C)n(C)c(=O)n(-c2ccc(C[C@H](NC(=O)c3cc(F)c(NS(=O)(=O)c4ccc(NC(=O)C(C)(C)C)cn4)cc3F)C(=O)O)cc2)c1=O [Compound A19] | 4.6 |
| Cc1c(C)n(C)c(=O)n(-c2ccc(C[C@H](NC(=O)c3cc(F)c(NS(=O)(=O)c4ccc(NC(=O)C5(C(F)(F)F)CC5)cc4)cc3F)C(=O)O)cc2)c1=O [Compound A20] | 17 |
| Cc1c(C)n(C)c(=O)n(-c2ccc(C[C@H](NC(=O)c3cc(F)c(NS(=O)(=O)c4ccc(NC(=O)C(C)(C)CO)cc4)cc3F)C(=O)O)cc2)c1=O [Compound A21] | 7.2 |
| Cc1c(C)n(C)c(=O)n(-c2ccc(C[C@H](NC(=O)c3cc(F)c(NS(=O)(=O)c4ccc(NC(=O)C5(O)CC5)cc4)cc3F)C(=O)O)cc2)c1=O [Compound A22] | 25 |
| Cn1c(=O)n(-c2ccc(C[C@H](NC(=O)c3cc(F)c(NS(=O)(=O)c4ccc(NC(=O)C5(O)CC5)cc4)cc3F)C(=O)O)cc2)c(=O)c2ccncc21 [Compound A23] | 32 |
| Cn1c(=O)n(-c2ccc(C[C@H](NC(=O)c3cc(F)c(NS(=O)(=O)c4ccc(NC(=O)C5(C(F)(F)F)CC5)cc4)cc3F)C(=O)O)cc2)c(=O)c2ccncc21 [Compound A24] | 15 |
| Cc1c(C)n(C)c(=O)n(-c2ccc(C[C@H](NC(=O)c3cc(F)c(NS(=O)(=O)c4ccc(NC(=O)C(C)(C)C)nc4)cc3F)C(=O)O)cc2)c1=O [Compound A25] | 48 |
| Cn1c(=O)n(-c2ccc(C[C@H](NC(=O)c3cc(F)c(NS(=O)(=O)c4ccc(NC(=O)C(C)(C)C)cc4)cc3F)C(=O)O)cn2)c(=O)c2ccncc21 [Compound A26] | 6.4 |
| Cn1c2c(c(=O)n(-c3ccc(C[C@H](NC(=O)c4cc(F)c(NS(=O)(=O)c5ccc(NC(=O)C(C)(C)C)cc5)cc4F)C(=O)O)cc3)c1=O)CCOC2 [Compound A27] | 2.4 |
